Several values for one entry are separate records, joined by “and”; a condition that tells them apart may be missing. Equal entries are not always repeated.
How the values were obtained:
Assay type in all cases: cell-based
MGC-803 cells = test: Cell viability assay (CellTiter-Glo), MGC-803; conditions: for inhibition rate: fraction; for inhibition rate / raw viability reading: replicates
Description: (§1) The cell lines Jurkat (TIB-152), El4 (TIB-39), Daudi (ccl-213), RS4:11 (crl-1873), A549 (ccl-185), HepG2 (hb-8065) and PANC-1 (crl-1469) were purchased from ATCC (American Type Culture Collection), and MGC-803 (C6582) was purchased from Beyotime (https://www.beyotime.com/product/C6582.htm). […] Daudi and RS4:11 cells were cultured in RPMI-1640 medium (HyClone, SH30809.01) and 10% FBS (Gibco, 10099-141), whereas HepG2, MGC-803 and PANC-1 cells were cultured in MDEM (HyClone, SH30243.01). Cells were maintained at 37 °C under a humidified, 5% (v/v) CO2-containing atmosphere.
(§2) Cell viability was measured using CellTiter-Glo® 2.0 Reagent (Promega, G9242). […] After different inhibitors were added into serum-free medium and cultured for 4 h (RS4:11 for 6 h), FBS were supplemented to 10% and then incubated totally for 24 h or 48 h. Finally, the IC50 values were calculated based on measurements using a microplate reader (Thermo, Varioskan LUX). Statistical analysis was performed using software GraphPad Prism 7.0.
(§3) Supplementary Figure 10 Functional mechanism of CPs. a. IC50 values of venetoclax against A549, MGC-803 and PANC-1 cells, measured after 48 h treatment by a CellTiter-Glo assay and calculated using Prism 7.0 by a nonlinear-fit method. Data are presented as mean ± s.d.; n= 6 biological replicates. b. […]
(§4) Glo assay. Each data point represents the mean ± s.d. for 6 biological replicates.
(§5) Supplementary Figure 11 IC50 values of different inhibitors against different cell lines. a-d. Viability of A549 (a), HepG2 (b), MGC-803 (c) and PANC-1 (d) cells treated with various concentrations of ABT-199 (venetoclax), and measured after 48 h by a CellTiter-Glo assay. e, f. Viability of Jurkat cells (e) and Daudi cells (f) treated with […]
(§6) after 48 h by a CellTiter-Glo assay. Each data point represents the mean ± s.d. for 6 biological replicates.
(§7) (1 picture or pasted object on this page, not shown here)

PANC-1 cells = test: Cell viability assay (CellTiter-Glo), PANC-1; conditions: PNAC-1; for inhibition rate: fraction; for inhibition rate / raw viability reading: replicates
Description: as §1, §2, §3, §4, §5, §6, §7

RS4:11 cells = test: Cell viability assay (CellTiter-Glo), RS4:11; conditions: for raw luminescence reading / inhibition rate: RS4:11; for raw luminescence reading: listed as ABT199
Procedure, shortened: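 Compounds added in serum-free medium for 4 h (RS4:11: 6 h), then FBS brought to 10% and incubation continued to 24 h or 48 h total at 37 °C, 5% CO2. Viability by CellTiter-Glo 2.0 luminescence; IC50 calculated.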

Jurkat cells = test: Cytochrome C release assay (mitochondrial cytochrome C, Western blot); conditions: 2.5 μM, 12 h
Description: Jurkat cells at 2 ×10^6 cells/mL were incubated in the presence of DMSO or 50 μM BIP-V5 inhibitor[54] (Yuanye Biotechnology Co., Ltd, 579492-81-2) for 24 h. Two groups of above treated cells were each divided into four groups and incubated in the presence of DMSO, venetoclax at 2.5 μM, cp4-TAT at 20 μM, or cp5-TAT at 15 μM in serum-free RPMI medium for 4 h. Then the medium was supplemented with FBS to 10% and incubated for another 8 h. After being treated by venetoclax or CPs for totally 12 h, cell were processed with the Mitochondrial Separation Kit (Beyotime, C3601) to extract mitochondria. Cytochrome C in mitochondria and BAX proteins in the whole cells were detected by Western blot.
Cell lysates containing equal amounts of total proteins were denatured, subjected to electrophoresis on SDS-PAGE gels, and transferred onto nitrocellulose membranes. The blots were blocked with 5% skim milk and then incubated at 4 °C overnight with the corresponding primary antibodies against BCL-2 (dilution 1:1000, Abcam, ab194583), BCL-XL (dilution 1:1000, Abcam, ab32370), anti-Flag (dilution 1:1000, Sigma, F1804), cytochrome C (dilution 1:1000, Beyotime, AC909), BAX (dilution 1:1000, Beyotime, AB026), α-Tubulin (dilution 1:3000, Abcam, ab7291), or β-Actin (dilution 1:3000, Abcam, ab8227). […]

El4 cells = test: Cell viability assay (CellTiter-Glo), El4; conditions: Mus musculus, 48 h treatment, NO = no inhibition detected
Description: as §1, §2

IC50 (RS4:11 cells; Homo sapiens, RS4-11, 48 h treatment, CellTiter-Glo, small-molecule inhibitors, cells marked (nM)): 0.5 ± 0.1 nM
Structure (SMILES): CC1(C)CCC(CN2CCN(c3ccc(C(=O)NS(=O)(=O)c4ccc(NCC5CCOCC5)c([N+](=O)[O-])c4)c(Oc4cnc5[nH]ccc5c4)c3)CC2)=C(c2ccc(Cl)cc2)C1 [venetoclax]
average (raw viability reading) (MGC-803 cells; ABT199 0.3125 uM): 557867
inhibition rate (MGC-803 cells; ABT199 0.3125 uM): 0.2027 and 0.1767 and 0.1757 and 0.1522 and 0.1169 and 0.1408
raw viability reading (MGC-803 cells; ABT199 0.3125 uM): 548000 and 563600 and 587100 and 571200 and 530000 and 547300
average (raw viability reading) (MGC-803 cells; ABT199 0.625 uM): 500400
inhibition rate (MGC-803 cells; ABT199 0.625 uM): 0.2793 and 0.2709 and 0.2616 and 0.2533 and 0.2176 and 0.2009
raw viability reading (MGC-803 cells; ABT199 0.625 uM): 490900 and 496400 and 520100 and 531200 and 479100 and 484700
average (raw viability reading) (MGC-803 cells; ABT199 1.25 uM): 506350
inhibition rate (MGC-803 cells; ABT199 1.25 uM): 0.2765 and 0.2507 and 0.2473 and 0.2351 and 0.2002 and 0.2202
raw viability reading (MGC-803 cells; ABT199 1.25 uM): 500400 and 508500 and 531700 and 518400 and 481000 and 498100
average (raw viability reading) (MGC-803 cells; ABT199 2.5 uM): 356233
inhibition rate (MGC-803 cells; ABT199 2.5 uM): 0.4666 and 0.4612 and 0.464 and 0.4702 and 0.4562
raw viability reading (MGC-803 cells; ABT199 2.5 uM): 356300 and 352200 and 361500 and 354600 and 358200
average (raw viability reading) (MGC-803 cells; ABT199 5 uM): 295000
inhibition rate (MGC-803 cells; ABT199 5 uM): 0.6033 and 0.5602 and 0.5626 and 0.5469 and 0.5313 and 0.5332
raw viability reading (MGC-803 cells; ABT199 5 uM): 290800 and 301200 and 311600 and 310300 and 263700 and 292400
average (raw viability reading) (MGC-803 cells; ABT199 10 uM): 171300
inhibition rate (MGC-803 cells; ABT199 10 uM): 0.7623 and 0.7504 and 0.748 and 0.7419 and 0.7262 and 0.725
raw viability reading (MGC-803 cells; ABT199 10 uM): 167500 and 171600 and 182000 and 182800 and 158000 and 165900
average (raw viability reading) (MGC-803 cells; ABT199 20 uM): 77771.7
inhibition rate (MGC-803 cells; ABT199 20 uM): 0.8931 and 0.8865 and 0.8872 and 0.8828 and 0.8769 and 0.8715
raw viability reading (MGC-803 cells; ABT199 20 uM): 75000 and 77910 and 81820 and 85400 and 71050 and 75450
average (raw viability reading) (PANC-1 cells; ABT199 0.625 uM): 745567
inhibition rate (PANC-1 cells; ABT199 0.625 uM): -0.00675 and 0.06232 and 0.04686 and 0.01357 and 0.002949
raw viability reading (PANC-1 cells; ABT199 0.625 uM): 768100 and 715400 and 727200 and 752600 and 760700 and 749400
average (raw viability reading) (PANC-1 cells; ABT199 1.25 uM): 742283
inhibition rate (PANC-1 cells; ABT199 1.25 uM): 0.02549 and 0.03519 and 0.03296 and 0.02484 and -0.003211 and 0.04725
raw viability reading (PANC-1 cells; ABT199 1.25 uM): 743500 and 736100 and 737800 and 744000 and 765400 and 726900
average (raw viability reading) (PANC-1 cells; ABT199 2.5 uM): 777083
inhibition rate (PANC-1 cells; ABT199 2.5 uM): -0.04175 and 0.01278 and 0.00793 and -0.01999 and -0.04882 and -0.0213
raw viability reading (PANC-1 cells; ABT199 2.5 uM): 794800 and 753200 and 756900 and 778200 and 800200 and 779200
average (raw viability reading) (PANC-1 cells; ABT199 5 uM): 562150
inhibition rate (PANC-1 cells; ABT199 5 uM): 0.3097 and 0.2596 and 0.2661 and 0.2453 and 0.2389
raw viability reading (PANC-1 cells; ABT199 5 uM): 526700 and 564900 and 559900 and 575800 and 580700
average (raw viability reading) (PANC-1 cells; ABT199 10 uM): 446683
inhibition rate (PANC-1 cells; ABT199 10 uM): 0.4023 and 0.4323 and 0.4298 and 0.4149 and 0.4042 and 0.4036
raw viability reading (PANC-1 cells; ABT199 10 uM): 456000 and 433100 and 435000 and 446400 and 454600 and 455000
average (raw viability reading) (PANC-1 cells; ABT199 20 uM): 384133
inhibition rate (PANC-1 cells; ABT199 20 uM): 0.5271 and 0.5025 and 0.4945 and 0.4865 and 0.4715 and 0.4971
raw viability reading (PANC-1 cells; ABT199 20 uM): 360800 and 379600 and 385700 and 391800 and 403200 and 383700
inhibition at 0.000390625 µM (RS4:11 cells; Homo sapiens, RS4-11, RS4:11, 0.390625 nM, single wells, read-out: inhibition rate): 27%
inhibition at 0.00078125 µM (RS4:11 cells; Homo sapiens, RS4-11, RS4:11, 0.78125 nM, single wells, read-out: inhibition rate): 67%
inhibition at 0.0015625 µM (RS4:11 cells; Homo sapiens, RS4-11, RS4:11, 1.5625 nM, single wells, read-out: inhibition rate): 95%
inhibition at 0.003125 µM (RS4:11 cells; Homo sapiens, RS4-11, RS4:11, 3.125 nM, single wells, read-out: inhibition rate): 98%
inhibition at 0.00625 µM (RS4:11 cells; Homo sapiens, RS4-11, RS4:11, 6.25 nM, single wells, read-out: inhibition rate): 100%
inhibition at 0.0125 µM (RS4:11 cells; Homo sapiens, RS4-11, RS4:11, 12.5 nM, single wells, read-out: inhibition rate): 100%
inhibition at 0.025 µM (RS4:11 cells; Homo sapiens, RS4-11, RS4:11, 25 nM, single wells, read-out: inhibition rate): 100%
inhibition at 0.05 µM (RS4:11 cells; Homo sapiens, RS4-11, RS4:11, 50 nM, single wells, read-out: inhibition rate): 100%
inhibition at 0.1 µM (RS4:11 cells; Homo sapiens, RS4-11, RS4:11, 100 nM, single wells, read-out: inhibition rate): 100%
inhibition at 0.2 µM (RS4:11 cells; Homo sapiens, RS4-11, RS4:11, 200 nM, single wells, read-out: inhibition rate): 100%
raw luminescence reading (RS4:11 cells; 0.012207 nM, single wells): 473100 and 440900 and 421900 and 464800 and 440500 and 404600
raw luminescence reading (RS4:11 cells; 0.0244141 nM, single wells): 468000 and 467900 and 427500 and 463600 and 451400 and 411500
raw luminescence reading (RS4:11 cells; 0.0488281 nM, single wells): 464300 and 463300 and 420200 and 448100 and 441000 and 405800
raw luminescence reading (RS4:11 cells; 0.0976562 nM, single wells): 446400 and 453400 and 406000 and 426100 and 420400 and 382600
raw luminescence reading (RS4:11 cells; 0.195312 nM, single wells): 418900 and 420900 and 384800 and 390800 and 394900 and 350200
raw luminescence reading (RS4:11 cells; 0.390625 nM, single wells): 317400 and 330800 and 297800 and 297300 and 296900 and 256100
inhibition rate (RS4:11 cells; 0.390625 nM, single wells, listed as ABT199, 0.000390625 µM): 24% and 32% and 41%
raw luminescence reading (RS4:11 cells; 0.78125 nM, single wells): 141300 and 149000 and 125700 and 134100 and 136000 and 117900
inhibition rate (RS4:11 cells; 0.78125 nM, single wells, listed as ABT199, 0.00078125 µM): 66% and 71% and 69% and 73%
raw luminescence reading (RS4:11 cells; 1.5625 nM, single wells): 23070 and 25650 and 25890 and 29130 and 27640 and 29210
inhibition rate (RS4:11 cells; 1.5625 nM, single wells, listed as ABT199, 0.0015625 µM): 94% and 93%
raw luminescence reading (RS4:11 cells; 3.125 nM, single wells): 9731 and 10360 and 11130 and 12480 and 11890 and 12850
inhibition rate (RS4:11 cells; 3.125 nM, single wells, listed as ABT199, 0.003125 µM): 97%
raw luminescence reading (RS4:11 cells; 6.25 nM, single wells): 514.1 and 705.1 and 803.0 and 736.8 and 691.7 and 772.7
raw luminescence reading (RS4:11 cells; 12.5 nM, single wells): 355.5 and 246.5 and 256.3 and 381.9 and 264.2 and 272.2
raw luminescence reading (RS4:11 cells; 25 nM, single wells): 183.0 and 151.3 and 145.9 and 222.1 and 185.6 and 197.7
raw luminescence reading (RS4:11 cells; 50 nM, single wells): 222.3 and 165.6 and 152.2 and 216.6 and 173.6 and 195.6
Cytochrome C level in mitochondria (Jurkat cells): decreased clearly
IC50 (El4 cells): 1700 ± 200 nM
